Test results reported in PMC4749844, “Investigation of Calcium Channel Blockers as Antiprotozoal Agents and Their Interference in the Metabolism of Leishmania (L.) infantum” (Evidence-based Complementary and Alternative Medicine : eCAM, 2016).
Where two headings read alike, the source gives them in different places. One block for each compound: values may come before it.

How the values were obtained:
L. (L.) major = tested on: L. (L.) major; parameters: method as in PMID 9501844; conditions: read-out: IC50 against L. (L.) major; cited from earlier work
L. (L.) amazonensis = tested on: L. (L.) amazonensis; parameters: method as in PMID 9501844; conditions: read-out: IC50 against L. (L.) amazonensis; cited from earlier work
[1] = tested on: L. (L.) infantum promastigotes; test: Mitochondrial membrane potential, MitoTracker Red; format: cell-based, Leishmania (L.) infantum; conditions: for reduction of MitoTracker Red fluorescence levels relative to untreated parasites: 20 μM, 60 minutes, p < 0.05
Procedure: L. […] Then MitoTracker® Red CM-H2XROS (500 nM) was added and the incubation was continued for 40 minutes in the dark. […] Nitazoxanide (60 μg/mL) was used as a positive control and untreated promastigotes were used as negative control.

[2] = tested on: L. (L.) infantum promastigotes; test: Reactive oxygen species (ROS), H2DCF-DA; format: cell-based, Leishmania (L.) infantum; conditions: for regulation of ROS content compared to untreated parasites: amlodipine, fendiline 20 μM, 60 minutes
Procedure: L. (L.) infantum promastigotes (2 × 10^6 cells/well) were washed in HBSS medium and incubated with amlodipine or fendiline (20 μM) for 60 minutes at 24°C. To these cells 2′,7′-dichlorodihydrofluorescein diacetate (H2DCf-DA) was added (5 μM) and incubation was prolonged for 15 minutes. […] Nitazoxanide (60 μg/mL) was used as positive control and untreated promastigotes were used as negative control.

[3] = tested on: L. (L.) infantum promastigotes; conditions: not told
Procedure: L. (L.) infantum promastigotes were washed with PBS, deposited on a 96-well microplate (2 × 10^6 parasites/well) and incubated with SYTOX® Green (1 μM) for 15 minutes at 24°C [10]. Amlodipine and fendiline were added at 20 μM and the fluorescence was measured up to 60 minutes. The fluorescence intensity was determined using a fluorimetric microplate reader (FilterMax F5 Multi-Mode Microplate Reader-Molecular Devices) with excitation and emission wavelengths of 485 and 520 nm, respectively. Triton X-100 (0.1%) was used as positive control and untreated promastigotes were used as negative control.

T. cruzi trypomastigotes = test: Antitrypanosomal activity, MTT assay; format: cell-based, Trypanosoma cruzi; conditions: for IC50 ± SD, T. cruzi trypomastigotes / IC50: 24 hours at 37°C, highest concentration 100 μM; for IC50: read-out: IC50 ± SD, T. cruzi trypomastigotes; for Selectivity Index (SI), T. cruzi trypomastigotes: ratio between cytotoxicity to LLC-MK2 cells and antiparasitic activity
Procedure: (§1) Promastigotes of L. (L.) amazonensis (WHO/BR/00/LT0016), L. (V.) braziliensis (MHO/BR/75/M2903), and L. (L.) infantum (MHOM/BR/1972/LD) [synonymous with L. (L.) chagasi] were maintained in M199 medium supplemented with 10% calf serum and 0.25% hemin at 24°C. L. (L.) infantum amastigotes were obtained from the spleen of infected hamster by differential centrifugation at the 60–70th days after infection. Macrophages were collected from the peritoneal cavity of BALB/c mice by washing with RPMI-1640 medium supplemented with 10% fetal calf serum and were maintained at 37°C in a 5% CO2 humidified incubator. Trypanosoma cruzi trypomastigotes (Y strain) were maintained in LLC-MK2 (ATCC CCL 7) cells using RPMI-1640 medium supplemented with 2% calf serum at 37°C in a 5% CO2 humidified incubator.
To determine the IC50 against T. cruzi trypomastigotes, drugs were dissolved in DMSO and diluted with RPMI-1460 medium in 96-well microplates, with the highest concentration at 100 μM. Trypomastigotes obtained from LLC-MK2 cultures were counted in a Neubauer hemocytometer and seeded at 1 × 10^6 parasites/well in 96-well microplates. Test drugs were incubated for 24 hours at 37°C in a 5% CO2 humidified incubator and the viability of trypomastigotes was verified by the MTT assay as described above. Benznidazole was used as a standard drug.

[4] = tested on: Leishmania spp. promastigotes; test: Antileishmanial activity against promastigotes of all species tested, MTT assay; format: cell-based; conditions: range over the Leishmania species tested
Procedure: as §1
To determine the 50% inhibitory concentration (IC50) against Leishmania promastigotes, the drugs were dissolved in DMSO and diluted with M199 medium in 96-well microplates, with 100 μM as the highest concentration. Each drug was tested twice at eight concentrations prepared in twofold dilutions. Promastigotes were counted in a Neubauer hemocytometer and seeded at 1 × 10^6 parasites/well with a final volume of 150 μL. Controls with DMSO and without drugs were performed. Pentamidine was used as a standard drug. […]

[5] = tested on: L. (L.) infantum intracellular amastigotes; test: Activity against intracellular amastigotes in peritoneal macrophages, Giemsa staining and light microscopy; format: cell-based, Leishmania (L.) infantum; conditions: for IC50 ± SD, L. (L.) infantum amastigotes / IC50: intracellular amastigotes in BALB/c peritoneal macrophages, 120 hours; for IC50: read-out: IC50 ± SD, L. (L.) infantum amastigotes; for Selectivity Index (SI), L. (L.) infantum amastigotes: ratio between cytotoxicity to LLC-MK2 cells and antiparasitic activity
Procedure: as §1
(§2) To determine the 50% inhibitory concentration (IC50) against Leishmania promastigotes, the drugs were dissolved in DMSO and diluted with M199 medium in 96-well microplates, with 100 μM as the highest concentration. Each drug was tested twice at eight concentrations prepared in twofold dilutions. Promastigotes were counted in a Neubauer hemocytometer and seeded at 1 × 10^6 parasites/well with a final volume of 150 μL. Controls with DMSO and without drugs were performed. Pentamidine was used as a standard drug. The plate was incubated for 24 hours at 24°C and the viability of promastigotes was verified by the MTT assay. Briefly, MTT (5 mg/mL) was dissolved in PBS, sterilized through 0.22 μm membrane and 20 μL/well was added, for 4 hours at 24°C. Promastigotes were incubated without compounds and used as a viability control. Formazan extraction was performed using 10% SDS for 18 hours (80 μL/well) at 24°C, and the optical density was determined in a Multiskan MS (UNISCIENCE) plate reader at 550 nm. The 100% viability was expressed based on the optical density of control promastigotes, after normalization. […] Plates were incubated at 37°C in a 5% CO2 humidified incubator for 24 hours. L. (L.) infantum amastigotes extracted from spleens and separated by differential centrifugation were added to macrophages at a ratio of 10 : 1 (amastigotes : macrophage). After 24 hours, extracellular parasites were removed by washing, fresh medium containing the drugs and controls was added, and the cells were incubated at 37°C for a period of 120 hours. Further medium changes with fresh drugs were carried out after 72 hours. At the end of the assay, the slides were stained with Giemsa and observed using light microscopy. Glucantime was used as a standard drug. The IC50 was determined by the number of infected macrophages in 400 cells.

[6] = Cytotoxicity in mammalian cells, MTT assay; format: cell-based; conditions: rhesus monkey, LLC-MK2 cells; 48 hours at 37°C; read-out: IC50 ± SD, LLC-MK2 cytotoxicity
Procedure: LLC-MK2 were seeded at 5 × 10^4 cells/well in 96-well microplates and incubated with drugs with 200 μM as the highest concentration, for 48 hours at 37°C in a 5% CO2 humidified incubator. The viability of the cells was determined by the MTT assay as described above. Control cells were incubated in the presence of DMSO and without drugs. Viability of 100% was expressed based on the optical density of control LLC-MK2 cells, after normalization. The Selectivity Index (SI) was given by the ratio between the cytotoxicity in LLC-MK2 cells and the antiparasitic activity.

[7] = tested on: L. (L.) infantum promastigotes; test: Antileishmanial activity against promastigotes, MTT assay; format: cell-based, Leishmania (L.) infantum; conditions: 24 hours at 24°C, highest concentration 100 μM; for IC50: Leishmania infantum, read-out: IC50 ± SD, L. (L.) infantum promastigotes
Procedure: as §1, §2

[8] = tested on: L. (V.) braziliensis promastigotes; test: as above; format: cell-based, Leishmania (V.) braziliensis; conditions: 24 hours at 24°C, highest concentration 100 μM; for IC50: Leishmania, read-out: IC50 ± SD, L. (V.) braziliensis promastigotes
Procedure: as §1, §2

[9] = tested on: L. (L.) amazonensis promastigotes; test: as above; format: cell-based, Leishmania (L.) amazonensis; conditions: 24 hours at 24°C, highest concentration 100 μM; for IC50: Leishmania amazonensis, read-out: IC50 ± SD, L. (L.) amazonensis promastigotes
Procedure: as §1, §2

T. cruzi epimastigotes = tested on: T. cruzi epimastigotes; parameters: method as in PMID 9457486; conditions: in vitro; read-out: IC50 against T. cruzi epimastigotes; cited from earlier work
[10] = Leishmania infantum, Peritoneal macrophage, in Mus musculus, 120 h

Compound: Nc1ccncc1 [4-aminopyridine]
IC50 (L. (L.) major): > 400 µM
IC50 (L. (L.) amazonensis): 46 µM

Compound: CCOC(=O)C1=C(COCCN)NC(C)=C(C(=O)OC)C1c1ccccc1Cl (stereo not drawn) [Amlodipine, amlodipine]
reduction of MitoTracker Red fluorescence levels relative to untreated parasites [1]: 7%
ROS levels, fold higher compared to fendiline ([2]; 20 μM): ~3 fold
upregulation of ROS, fold higher than nitazoxanide ([2]; amlodipine 20 μM, nitazoxanide 60 μg/mL): 1.99 fold
regulation of ROS content compared to untreated parasites ([2]; nitazoxanide 60 μg/mL): intense and significant (p < 0.05) upregulation of ROS content
plasma membrane permeability (SYTOX Green fluorescence) [3]: no interference on the plasma membrane permeability

IC50 ± SD, T. cruzi trypomastigotes (T. cruzi trypomastigotes): ne^b
IC50 ± SD, T. cruzi trypomastigotes (T. cruzi trypomastigotes; listed as amrinone): inactive
IC50 ± SD, L. (L.) infantum amastigotes [5]: ne^b
Compound: Nc1cc(-c2ccncc2)c[nH]c1=O [Amrinone]
IC50 [4]: > 100 µM
IC50 at 48 h [6]: > 500 µM
IC50 ± SD, L. (L.) infantum promastigotes [7]: ne^b
IC50 ± SD, L. (V.) braziliensis promastigotes [8]: ne^b
IC50 ± SD, L. (L.) amazonensis promastigotes [9]: ne^b

IC50 (T. cruzi trypomastigotes): 440 ± 39.1 µM
IC50 (T. cruzi trypomastigotes; Trypanosoma cruzi, 24 h): 440 µM
Compound: O=C(Cn1ccnc1[N+](=O)[O-])NCc1ccccc1 [Benznidazole]
IC50 at 48 h [6]: > 500 µM

IC50 (T. cruzi trypomastigotes; Trypanosoma cruzi, 24 h): 12.1 ± 2.97 µM
IC50 [5, 10]: 12 to 16 µM
IC50 [5]: 12.2 ± 1.74 µM
Compound: CC(NCCC(c1ccccc1)c1ccccc1)c1ccccc1 (stereo not drawn) [Fendiline, fendiline]
Selectivity Index (SI), T. cruzi trypomastigotes (T. cruzi trypomastigotes): 4.11
Selectivity Index (SI), L. (L.) infantum amastigotes [5]: 4.09
IC50 at 48 h [6]: 49.9 ± 8.16 µM
reduction of MitoTracker Red fluorescence levels relative to untreated parasites [1]: 18%
regulation of ROS content compared to untreated parasites ([2]; nitazoxanide 60 μg/mL): intense and significant (p < 0.05) upregulation of ROS content
IC50 [7]: 16.1 ± 4.2 µM
IC50 [8]: 9.15 ± 0.78 µM
IC50 [9]: 8.66 ± 1.27 µM
plasma membrane permeability (SYTOX Green fluorescence) [3]: no interference on the plasma membrane permeability

IC50 (T. cruzi trypomastigotes; Trypanosoma cruzi, 24 h): 10.4 ± 1.87 µM
IC50 [5, 10]: 12 to 16 µM
IC50 [5]: 16.3 ± 4.45 µM
Compound: Cc1cccc(C)c1NC(=O)CN1CCN(CCCC(c2ccc(F)cc2)c2ccc(F)cc2)CC1 [Lidoflazine, lidoflazine]
Selectivity Index (SI), T. cruzi trypomastigotes (T. cruzi trypomastigotes): 10.25
Selectivity Index (SI), L. (L.) infantum amastigotes [5]: 6.54
IC50 at 48 h [6]: 107 ± 58 µM
IC50 [7]: 17.7 ± 0.93 µM
IC50 [8]: 14.5 ± 1.08 µM
IC50 [9]: 11.5 ± 1.49 µM

IC50 (T. cruzi trypomastigotes; Trypanosoma cruzi, 24 h): 2.99 ± 0.43 µM
IC50 ± SD, L. (L.) infantum amastigotes [5]: ne^b
IC50 ± SD, L. (L.) infantum amastigotes ([5]; listed as mibefradil): lack of activity
Compound: COCC(=O)O[C@]1(CCN(C)CCCc2nc3ccccc3[nH]2)CCc2cc(F)ccc2[C@@H]1C(C)C [Mibefradil, mibefradil]
Selectivity Index (SI), T. cruzi trypomastigotes (T. cruzi trypomastigotes): 4.01
IC50 at 48 h [6]: 12 ± 1.03 µM
IC50 [7]: 3.6 ± 0.11 µM
IC50 [8]: 2.75 ± 0.39 µM
IC50 [9]: 2.23 ± 0.42 µM

Compound: CC(=O)Oc1ccccc1C(=O)Nc1ncc([N+](=O)[O-])s1 [Nitazoxanide]
effect on mitochondrial membrane potential (fluorescence intensity) ([1]; nitazoxanide 60 μg/mL, positive control): strong reduction of fluorescence intensity
regulation of ROS content compared to untreated parasites ([2]; nitazoxanide 60 μg/mL): significant upregulation of ROS

Compound: N=C(N)c1ccc(OCCCCCOc2ccc(C(=N)N)cc2)cc1 [Pentamidine]
IC50 [4]: 0.69 to 1.14 µM
IC50 at 48 h [6]: 23.5 ± 3.53 µM
IC50 [7]: 1.06 ± 0.12 µM
IC50 [8]: 0.69 ± 0.04 µM
IC50 [9]: 1.14 ± 0.15 µM

Compound: COC(=O)C1=C(C)NC(C)=C(C(=O)OC(C)C)C1c1cccc2nonc12 (stereo not drawn) [isradipine]
IC50 (T. cruzi epimastigotes): 20 µM

Compound: CCOC(=O)C1=C(C)NC(C)=C(C(=O)OCC)C1c1ccccc1/C=C/C(=O)OC(C)(C)C [lacidipine]
IC50 (T. cruzi epimastigotes): 33 µM

Compound: Triton X-100
plasma membrane permeability (SYTOX Green fluorescence) [3]: fully permeabilized parasites
